As usually defined, the IC50 is the concentration that inhibits the measured activity by half. Read a low IC50 as inhibition by little substance.

Holding throughout (format): functional, cell-based
The test system of one assay is P388. The assay is described as follows: Cytotoxicity against mouse P388 cells.
Assay [1] can be described thus: Cytotoxicity against human CCM2 cells.
The subject of the next assay is HepG2. Nature of the assay: Cytotoxicity against human HepG2 cells.
Assay [2] is described as follows: Cytotoxicity against human HepG2(2.2.15) cells.
The test system of the next assay is KB. The assay is described as follows: Cytotoxicity against human KB cells.

As for `C[C@H](CC(=O)C[C@@H](C)[C@H]1CC(=O)[C@@]2(C)C3=C(C(=O)C[C@]12C)[C@@]1(C)CCC(=O)C(C)(C)[C@@H]1CC3=O)C(=O)O` [GANODERIC ACID E], the half-inhibitory concentration (IC50) in the assay on P388 worked out at 5010 nM; in assay [1] it was 31200 nM; in the assay with HepG2, 0.144 nM; in assay [2], 0.105 nM.

Take `C[C@H](CCC(=O)O)[C@H]1CC(=O)[C@@]2(C)C3=C(C(=O)C[C@]12C)[C@@]1(C)CCC(=O)C(C)(C)[C@@H]1C[C@@H]3O` [LUCIDENIC ACID A]: the IC50 in the assay with P388 was 17 nM; in assay [1] it was 27500 nM; in the assay with KB, 17000 nM; in the assay on HepG2 it was 0.164 nM; in assay [2] it was 0.205 nM.

Take `C[C@H](CCC(=O)O)[C@H]1CC(=O)[C@@]2(C)C3=C(C(=O)C[C@]12C)[C@@]1(C)CC[C@H](O)C(C)(C)[C@@H]1C[C@@H]3O` [LUCIDENIC ACID N]: the half-inhibitory concentration (IC50) worked out at 12 nM with P388; 35500 nM in assay [1]; 26700 nM in the assay on KB; 0.206 nM in the assay with HepG2; 1.66 nM in assay [2].

For the origin of these results see ChEMBL document CHEMBL1155757, “Cytotoxicity of Ganoderma lucidum triterpenes” (J Nat Prod, 2001).
